“Also recorded” adds a separate entry of the source. Marks after values point to notes of the source that are not given here.
What was measured:
TNF-α = TNF-α content of paw exudate by ELISA, carrageenan paw edema model; type: in vivo, Sprague Dawley rats; conditions: vs carrageenan group
Experimental: (§1) ELISA assessment assays were conducted as cited (Supplementary Materials, page 53).
(§2) In-vivo anti-inflammatory activity […]
(§3) cervical dislocation. […] The percentage
(§4) Weight of the left paw] ×100.
(§5) Assessment of inflammatory biomarkers using ELISA […]
(§6) content, using enzyme -linked immunosorbent assay (ELISA). The ELISA kits were purchased from CLOUD -CLONE CORP (CCC, USA) (Cat# SEA133Ra) and MyBioSource company (British Columbia, Canada) (Cat# MBS730592) respectively, and the assays were performed following the manufacturer' s instructions. Additionally, the protein content of the exudates was determined using the Bradford method.

[1] = system: paw tissue, carrageenan paw edema model; assay: Histopathological examination of paws, inflammatory cell infiltration score; type: in vivo, rats; conditions: for Paw histopathological finding: H&E staining, carrageenan paw edema; for Reduction in inflammatory cell infiltration score: vs carrageenan group, paw, 5 hours
Experimental: The histopathological assessments were performed according to the following procedures (Supplementary Materials, page 54). […]
Histopathological examination
Thirty-six rats were separated into six groups of six rats each for histological assessment […]
groupings consisted of a control group, a carrageenan group, two groups for the reference drugs […]
protocols that were utilized in the in-vivo anti-inflammatory activity test were used. After a duration of 5 hours, the animals were euthanized, and their left paws were amputated. The paws were preserved in 10% neutral buffered formalin, trimmed, washed, dehydrated in increasing concentrations of ethyl alcohol, clarified in xylene, and ultimately embedded in paraffin. They were then sliced into 4-6µ thick slices, stained with Hematoxylin and Eosin, and examined under a light microscope. A scoring system was used to evaluate the degree of inflammation, dividing it into six categories ranging from 0 indicating no inflammation to 5 indicating severe inflammation.
Each score corresponded to a certain level of inflammation: 0 for no inflammation, 1 for mild inflammation, 2 for mild to moderate inflammation, 3 for moderate inflammation, 4 for moderate to severe inflammation, and 5 for severe inflammation.

[2] = system: nociceptive responses on hot plate; assay: Hot plate latency test (analgesic activity); type: in vivo, rats; conditions: for Hot plate latency period: plate 50 °C, mean ± SD, n = 6
Experimental: The hot plate latency test was performed according to the following procedures (Supplementary Materials, page 54). […]
In summary, thirty rats
The normal control group received 1% CMC, while the remaining groups were administered their respective reference or test compounds. Each rat was gently positioned on a heated plate set at 50 ◦C. The latency period for nociceptive responses, such as paw licking or jumping off the hot plate, was recorded at 30-, 60-, 90-, and 120 minutes post-administration of the reference drugs, test […]

[3] = Assessment of liver and kidney function (serum ALT, AST, creatinine, urea); type: in vivo, rats; set-up: Urea: unit not given here; conditions: mean ± SD; for ALT / AST / Urea / AST/ALT: n = 6; for Creatinine: n = 6, in mg/dL (unit assumed)
Experimental: These assessments were conducted following the manufacturer’s instructions (Supplementary Materials, page 55).
In-vivo anti-inflammatory activity
as §3, §4
Assessment of inflammatory biomarkers using ELISA

PGE2 = PGE2 content of paw exudate by ELISA, carrageenan paw edema model; type: in vivo, Sprague Dawley rats; conditions: vs carrageenan group
Experimental: as §1, §2, §3, §4, §5, §6

gastric mucosa = assay: Evaluation of ulcerogenic effects (macroscopic scores and gastric histopathology); conditions: for Gastric mucosa histopathological finding: H&E staining; for Ulcer Number Score / Ulcer Severity Score: mean ± SD; for Ulcer Number Score: n = 6; for Ulcer Severity Score: n = 6, scale 0 to 5
Experimental: The assessment of ulcerogenic effects was conducted following established procedures [42, 57]
Following the experimental period, the animals were euthanized using pentobarbital sodium (100 mg/kg), and blood was collected via jugular vein exsanguination for later evaluation of liver and kidney function, and subsequently sacrificed by cervical dislocation. […] Following this, the animals' stomachs were removed, inflated, and opened along the greater curvature to evaluate ulcerogenic effects.
B: Ulcer lesion severity scoring system
2.5 More than 10 small ulcers
3 1 marked ulcer plus 0 to 4 small ulcers
3.5 1 marked ulcer plus 5 or more small ulcers
4 2 marked ulcers plus 0 to 4 small ulcers
4.5 2 marked ulcers plus 5 or more small ulcers
5 3 or more marked ulcers
The statistical analysis of the data was conducted using GraphPad Prism 9.5.1 Demo
(GraphPad Software, San Diego, CA). One -way analysis of variance (ANOVA) was utilized to
evaluate differences among the various groups, except for paw edema volume, which un derwent
analysis using two -way ANOVA. Post -hoc analysis was performed using Tukey's multiple
significance set at P < 0.05

[4] = system: carrageenan-induced paw edema; assay: Carrageenan paw edema test (paw thickness, paw weight); conditions: for Paw thickness difference: oral; for Paw thickness difference / Paw Weight Increase: mean ± SD, n = 6; for Percentage of inhibition of paw thickness / Inhibition of percentage of paw weight increase: vs carrageenan group; for Paw Weight Increase: right vs left paw, after 5 h
Experimental: The carrageenan paw edema test was conducted following established procedures as detailed (Supplementary Materials, page 53).
The carrageenan paw edema test was conducted following established procedures. In summary, seventy-two rats were randomly assigned to twelve groups, each comprising six rats.
These groups included normal controls, carrageenan controls (both receiving the vehicle; 1%
Acute inflammation was induced in the right hind paws of all rats one hour after oral administration of the respective compounds or vehicle. This was achieved by injecting a freshly prepared 0.1 mL carrageenan suspension (1% in normal saline) subplantarly into the right hind paw, except for the normal control group, which received a saline injection. Paw thickness was measured hourly (Ct) until the fifth hour (C5) post-carrageenan injection (C0). The hourly increase in paw thickness (paw thickness difference) was calculated by subtracting the initial measurement (C0) from the thickness at each hour (Ct), and the results were presented as the mean increase in paw thickness (mm). To evaluate anti-inflammatory effects, the percentage of inhibition for each standard and test compound was determined using the formula: percentage of inhibition (%) = [(Paw thickness difference of carrageenan group - Paw thickness difference of treated)/ Paw thickness difference of carrageenan group] × 100. […] The paws were then excised and weighed (both left and right). The percentage of weight increase between the left and right paws of each animal was calculated using the equation: Percentage of weight increase = [(Weight of the right paw - Weight of the left paw) / Weight of the left paw] ×100.

human COX-2 = target: T1, human COX-2 (Homo sapiens, UniProt P35354); assay: In vitro COX-2 inhibition assay (Cayman colorimetric COX inhibitor screening kit); conditions: for IC50: COX-2 IC50, mean ± SEM, n = 3
T1 sequence (P35354 18-604): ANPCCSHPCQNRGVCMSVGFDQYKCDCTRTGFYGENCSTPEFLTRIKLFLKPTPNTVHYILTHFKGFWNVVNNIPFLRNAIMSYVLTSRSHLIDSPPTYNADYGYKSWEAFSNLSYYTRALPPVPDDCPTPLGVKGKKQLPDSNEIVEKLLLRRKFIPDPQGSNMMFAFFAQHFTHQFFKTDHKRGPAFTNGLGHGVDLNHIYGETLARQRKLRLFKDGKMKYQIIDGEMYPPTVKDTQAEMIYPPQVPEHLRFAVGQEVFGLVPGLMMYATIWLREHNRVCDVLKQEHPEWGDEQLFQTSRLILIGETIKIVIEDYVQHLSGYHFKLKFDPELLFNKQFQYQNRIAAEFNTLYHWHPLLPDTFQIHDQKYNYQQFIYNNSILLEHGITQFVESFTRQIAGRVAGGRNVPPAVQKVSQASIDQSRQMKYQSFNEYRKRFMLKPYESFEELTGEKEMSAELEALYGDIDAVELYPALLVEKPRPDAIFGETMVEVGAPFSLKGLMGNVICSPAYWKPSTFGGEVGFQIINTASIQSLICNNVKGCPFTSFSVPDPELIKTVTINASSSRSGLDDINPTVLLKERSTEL
Experimental: (§7) The in vitro enzyme assays were performed at the Biochemistry Department, Cairo
(§8) General Hospital, Egypt. Cayman® colorimetric COX (ovine) inhibitor screening assay kit (Item
(§9) enzymes in presence of all newly compounds. Generally, this kit is dependent on the reductive
(§10) reaction of COX. A specific antibody binds to PGH2 produced by COX and is further quantified
(§11) by the ELISA technique as previously reported. After that, the selectivity index (SI) was calculated
as the following equation:
𝐒𝐞𝐥𝐞𝐜𝐭𝐢𝐯𝐢𝐭𝐲 𝐢𝐧𝐝𝐞𝐱 (𝐒𝐈) = 𝐈𝐂₅₀𝐨𝐟 𝐂𝐎𝐗 − 𝟏

ovine COX-1 = target: T2, ovine COX-1 (Ovis aries, UniProt P05979); assay: In vitro COX-1 inhibition assay (Cayman colorimetric COX inhibitor screening kit)
T2 sequence (P05979 25-600): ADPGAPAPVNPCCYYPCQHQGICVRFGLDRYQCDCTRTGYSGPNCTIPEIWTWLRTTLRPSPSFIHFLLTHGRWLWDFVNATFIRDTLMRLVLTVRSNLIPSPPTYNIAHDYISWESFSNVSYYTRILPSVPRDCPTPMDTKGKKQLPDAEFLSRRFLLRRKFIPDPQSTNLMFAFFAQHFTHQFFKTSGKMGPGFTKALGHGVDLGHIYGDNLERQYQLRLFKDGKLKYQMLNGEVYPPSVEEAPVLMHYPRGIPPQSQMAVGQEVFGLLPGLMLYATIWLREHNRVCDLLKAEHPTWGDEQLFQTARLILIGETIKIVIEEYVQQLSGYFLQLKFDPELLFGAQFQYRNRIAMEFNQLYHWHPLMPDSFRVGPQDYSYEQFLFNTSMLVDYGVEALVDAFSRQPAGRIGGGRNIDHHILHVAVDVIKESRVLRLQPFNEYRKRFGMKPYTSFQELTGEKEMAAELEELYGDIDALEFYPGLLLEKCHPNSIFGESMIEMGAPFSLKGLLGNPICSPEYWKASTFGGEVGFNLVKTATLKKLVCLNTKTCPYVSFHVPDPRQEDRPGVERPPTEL
Experimental: as §7, §8, §9, §10, §11
as the following equation:
𝐒𝐞𝐥𝐞𝐜𝐭𝐢𝐯𝐢𝐭𝐲 𝐢𝐧𝐝𝐞𝐱 (𝐒𝐈) = 𝐈𝐂₅₀𝐨𝐟 𝐂𝐎𝐗 − 𝟏

COX-2 = conditions: earlier work of the authors; cited from earlier work

SMILES | Reduction of TNF-α exudate content (TNF-α) | Paw histopathological finding [1] | Hot plate latency period ([2]; 30 min post-administration) | Hot plate latency period ([2]; 60 min post-administration) | Hot plate latency period ([2]; 90 min post-administration) | Increase in latency period ([2]; 120 min mark) | Hot plate latency period ([2]; 120 min post-administration) | ALT [3] | AST [3] | Urea [3] | Creatinine [3] | Reduction of PGE2 exudate content (PGE2) | Gastric mucosa histopathological finding (gastric mucosa) | Ulcer Number Score (gastric mucosa) | Ulcer Severity Score (gastric mucosa) | Paw thickness difference ([4]; 1st h after carrageenan) | Percentage of inhibition of paw thickness ([4]; 1st h) | Paw thickness difference ([4]; 2nd h after carrageenan) | Percentage of inhibition of paw thickness ([4]; 2nd h) | Paw thickness difference ([4]; 3rd h after carrageenan) | also measured
Cc1ccc(-c2cc(C(F)(F)F)nn2-c2ccc(S(N)(=O)=O)cc2)cc1 [Celecoxib, celecoxib, reference compound] | 63.52% | dermal infiltration by high number of inflammatory cells mainly neutrophils and lymphocytes; also recorded: significant dermal infiltration by a large quantity of inflammatory cells | 8.39 ± 0.22 ^a | 9.95 ± 0.23 ^a | 11.63 ± 0.60 ^a | 46.70% | 13.88 ± 0.41 ^a | 92.94 ± 5.00 IU/L | 101.23 ± 10.04 IU/L | 26.28 ± 3.11 | 0.73 ± 0.03 | 60.16% | ulcer formation with eroded gastric mucosa; also recorded: developed ulcers with degraded gastric mucosa | 1.00 ± 0.63 | 0.75 ± 0.52 | 1.4 ± 0.38 mm | 29.31% | 2.36 ± 0.51 mm | 28.34% | 2.83 ± 0.43 mm | Percentage of inhibition of paw thickness ([4]; 3rd h): 33%; Paw thickness difference ([4]; 4th h after carrageenan): 3.01 ± 0.57 mm; Percentage of inhibition of paw thickness ([4]; 4th h): 40.39%; Paw thickness difference ([4]; 5th h after carrageenan): 3.10 ± 0.23 mm; Percentage of inhibition of paw thickness ([4]; 5th h): 41.65%; Paw Weight Increase [4]: 29.95 ± 2.20 ^ab %
O=C(O)COc1ccc(Br)cc1C=NNC(=O)c1ccc(Cl)cc1 [Compound 5f, 2-(4-Bromo-2-((2-(4-chlorobenzoyl)hydrazineylidene)methyl)phenoxy)acetic acid] | 61.04% | infiltration by a few numbers of inflammatory cells mainly eosinophils and lymphocytes; also recorded: dermal edema with limited infiltration of inflammatory cells | 8.99 ± 0.38 ^abc | 10.59 ± 0.3 ^abc | 12.48 ± 0.65 ^ab | 49.50% | 14.15 ± 0.38 ^a | 92.76 ± 3.83 IU/L | 93.69 ± 5.26 IU/L | 26.37 ± 2.48 | 0.67 ± 0.04 | 60.58% | normal histological structure of gastric mucosa; also recorded: normal histological structure of the stomach mucosa | 0.50 ± 0.55 ^d | 0.33 ± 0.41 ^d | 0.83 ± 0.15 mm | 58.11% | 1.65 ± 0.29 mm | 49.85% | 2.32 ± 0.17 mm | SI (COX-2 selectivity index) (human COX-2; COX-1 (IC50)/COX-2 (IC50)): 133.34; IC50 (human COX-2): 60 ± 10 nM; Reduction in inflammatory cell infiltration score [1]: 70.37%; Increase in latency period ([2]; 30 min mark): 39.43%; IC50 (ovine COX-1): 8000 ± 200 nM; AST/ALT [3]: 1.01 ± 0.08; Percentage of inhibition of paw thickness ([4]; 3rd h): 45.05%; Paw thickness difference ([4]; 4th h after carrageenan): 2.68 ± 0.12 mm; Percentage of inhibition of paw thickness ([4]; 4th h): 46.9%; Paw thickness difference ([4]; 5th h after carrageenan): 2.84 ± 0.13 mm; Paw Weight Increase [4]: 29.85 ± 3.88 ^ab %; Inhibition of percentage of paw weight increase [4]: 68.26%
O=C(O)COc1ccc(Br)cc1C=NNC(=O)Cc1ccccc1 [Compound 7b, 2-(4-Bromo-2-((2-(2-phenylacetyl)hydrazineylidene)methyl)phenoxy)acetic acid] | 64.88% | dermal infiltration by a moderate number of mononuclear inflammatory cells; also recorded: moderate infiltration of mononuclear inflammatory cells in the dermis | 8.88 ± 0.29 ^ac | 10.35 ± 0.35 ^ac | 12.09 ± 0.29 ^ac | 44.90% | 13.71 ± 0.31 ^a | 89.13 ± 8.53 IU/L | 97.59 ± 6.19 IU/L | 27.16 ± 1.53 | 0.68 ± 0.05 | 57.07% | infiltration of gastric mucosa by a few numbers of mononuclear inflammatory cells | 0.67 ± 0.52 | 0.42 ± 0.38 | 0.65 ± 0.16 mm | 67.23% | 1.08 ± 0.21 mm | 67.11% | 1.64 ± 0.13 mm | IC50 (human COX-2): 60 ± 10 nM; Reduction in inflammatory cell infiltration score [1]: 62.96%; Increase in latency period ([2]; 30 min mark): 37.67%; IC50 (ovine COX-1): 5930 ± 120 nM; AST/ALT [3]: 1.10 ± 0.12; Percentage of inhibition of paw thickness ([4]; 3rd h): 61.23%; Paw thickness difference ([4]; 4th h after carrageenan): 1.90 ± 0.19 mm; Percentage of inhibition of paw thickness ([4]; 4th h): 62.42%; Paw thickness difference ([4]; 5th h after carrageenan): 1.95 ± 0.19 mm; Paw Weight Increase [4]: 33.07 ± 1.88 ^ab %; Inhibition of percentage of paw weight increase [4]: 64.84%
O=C(O)COc1ccc(/C=C2\SC(N3N=C(c4ccc(Cl)cc4)CC3c3ccccc3)=NC2=O)cc1 (stereo not drawn) [XIV] |  |  |  |  |  |  |  |  |  |  |  |  |  |  |  |  |  |  |  |  | IC50 (COX-2): 60 nM
